Laboratory results taken from US11046691B1 (IDEAYA BIOSCIENCES, INC., priority 2018, dated 2021).
pIC50: −log10 of the molar value.

These compounds were tested against hMAT2A (Homo sapiens (Human), UniProt P31153) (assay: Phosphate Sensor Fluorescence Assay (MAT2A enzyme inhibition)). Details: L-methionine 500 uM, ATP 500 uM, class symbols.
Assay type: biochemical
In short: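 Recombinant MAT2A preincubated 15 min at room temperature with compound, then reacted 1 h at room temperature with 500 uM L-methionine and 500 uM ATP in Tris pH 7.5 buffer containing PNP/7-MEG.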

Chain of hMAT2A (P31153 whole entry): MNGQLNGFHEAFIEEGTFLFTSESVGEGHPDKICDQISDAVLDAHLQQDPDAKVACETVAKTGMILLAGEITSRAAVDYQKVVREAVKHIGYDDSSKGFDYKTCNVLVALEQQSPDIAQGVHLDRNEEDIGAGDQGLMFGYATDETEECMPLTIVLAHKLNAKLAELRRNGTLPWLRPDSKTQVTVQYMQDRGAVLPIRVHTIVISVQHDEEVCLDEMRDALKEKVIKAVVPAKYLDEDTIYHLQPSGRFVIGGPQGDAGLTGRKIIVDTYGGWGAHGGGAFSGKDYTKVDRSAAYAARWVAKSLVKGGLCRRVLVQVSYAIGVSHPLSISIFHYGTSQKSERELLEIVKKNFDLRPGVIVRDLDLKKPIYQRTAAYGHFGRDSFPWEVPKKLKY

pIC50 | SMILES
> 6.70 | O=c1nc(NC2CCC2)c2ccc(C(F)(F)F)nc2n1-c1ccccc1Cl [Example 320, 1-(2-chlorophenyl)-4-(cyclobutylamino)-7-(trifluoromethyl)pyrido[2,3-d]-pyrimidin-2(1H)-one]
> 6.70 | O=c1nc(N[C@H]2C[C@@H](O)C2)c2ccc(C(F)(F)F)nc2n1-c1ccccc1Cl [Example 321]
> 6.70 | O=c1nc(NC2(CO)CC2)c2ccc(C(F)(F)F)nc2n1-c1ccccc1Cl [Example 322, 1-(2-chlorophenyl)-4-{[(hydroxy-methyl)cyclopropyl]amino}-7-(trifluoro-methyl)-pyrido[2,3-d]pyrimidin-2(1H)-one]
> 6.70 | O=c1nc(NCC(F)F)c2ccc(C(F)(F)F)cc2n1-c1cccnc1 [Example 325, 4-[(2,2-difluoroethyl)amino]-1-(pyridin-3-yl)-7-(trifluoromethyl)hydro-quinazolin-2-one]
> 6.70 | Nc1nc(=O)n(-c2cccnc2)c2cc(C(F)(F)F)ccc12 [Example 327, 4-amino-1-(pyridin-3-yl)-7-(trifluoro-methyl)hydroquinazolin-2-one]
> 6.70 | CNc1nc(=O)n(-c2ccc3[nH]ncc3c2)c2cc(Cl)ccc12 [Example 328, 1-(1H-indazol-5-yl)-7-chloro-4-(methyl-amino)hydroquinazolin-2-one]
> 6.70 | CNc1nc(=O)n(-c2ccccc2C)c2cc(Cl)cc(OC)c12 [Example 329, 7-chloro-5-methoxy-4-(methylamino)-1-(2-methylphenyl)hydroquinazolin-2-one]
> 6.70 | CNc1nc(=O)n(-c2cccc(O)c2F)c2cc(Cl)ccc12 [Example 333, 7-chloro-1-(2-fluoro-3-hydroxyphenyl)-4-(methylamino)quinazolin-2(1H)-one]
> 6.70 | O=c1nc(N[C@H]2C[C@H](O)C2)c2ccc(C(F)(F)F)nc2n1-c1ccccc1Cl [Example 334, 1-(2-chlorophenyl)-4-(((1r,3r)-3-hydroxycyc1obutyl)amino)-7-(trifluoro-methyl)pyrido[2,3-d]pyrimidin-2(1H)-one]
> 6.70 | [2H]C([2H])([2H])N(c1nc(=O)n(-c2ccccc2Cl)c2nc(C(F)(F)F)ccc12)C([2H])([2H])[2H] [Example 339, 4-(bis(methyl-d3)amino)-1-(2-chloro-phenyl)-7-(trifluoromethyl)-pyrido[2,3-d]pyrimidin-2(1H)-one]
6.30 to 6.70 | O=c1[nH]c(=O)n(-c2ccc3[nH]cnc3c2)c2cc(Cl)ccc12 [Example 340, 1-(1H-benzo[d]imidazol-5-yl)-7-chloro-quinazoline-2,4(1H,3H)-dione]
> 6.70 | CNc1nc(=O)n(-c2cccnc2)c2cc(C(F)(F)F)ccc12 [Example 341, 4-(methylamino)-1-(pyridin-3-yl)-7-(trifluoromethyl)hydroquinazolin-2-one]
> 6.70 | C[C@@H]1CCCN1c1nc(=O)n(-c2ccccc2)c2nc(C(F)(F)F)ccc12 [Example 344, 4-((2R)-2-methylpyrrolidin-1-yl)-1-phenyl-7-(trifluoromethyl)pyrido[2,3-d]-pyrimidin-2(1H)-one]
> 6.70 | C[C@H]1CCCN1c1nc(=O)n(-c2ccccc2)c2nc(C(F)(F)F)ccc12 [Example 345, 4-((2S)-2-methylpyrrolidin-1-yl)-1-phenyl-7-(trifluoromethyl)pyrido[2,3-d]-pyrimidin-2(1H)-one]
> 6.70 | O=c1nc(N2CCSC2)c2ccc(C(F)(F)F)nc2n1-c1ccccc1 [Example 346, 1-phenyl-4-(1,3-thiazolidin-3-yl)-7-(trifluoromethyl) pyrido[2,3-d]-pyrimidin-2(1H)-one]

Second part, the compound before the results:

SMILES | pIC50
C[C@H](O)CNc1nc(=O)n(-c2ccccc2Cl)c2nc(C(F)(F)F)ccc12 [Example 293, 4-[((2S)-2-hydroxypropyl)amino]-1-(2-chlorophenyl)-7-(trifluoromethyl)-pyrido[2,3-d]pyrimidin-2(1H)-one] | > 6.70
C[C@@H](O)CNc1nc(=O)n(-c2ccccc2Cl)c2nc(C(F)(F)F)ccc12 [Example 294, 4-[((2R)-2-hydroxypropyl)amino]-1-(2-chlorophenyl)-7-(trifluoromethyl)-pyrido[2,3-d]pyrimidin-2(1H)-one] | > 6.70
O=c1nc(NCC2(O)CC2)c2ccc(C(F)(F)F)nc2n1-c1ccccc1Cl [Example 295, 1-(2-chlorophenyl)-4-{[(hydroxycyclo-propyl)methyl]amino}-7-(trifluoro-methyl)-pyrido[2,3-d]pyrimidin-2(1H)-one] | > 6.70
O=c1nc(NCCO)c2ccc(C(F)(F)F)nc2n1-c1ccccc1Cl [Example 296, 1-(2-chlorophenyl)-4-[(2-hydroxy-Iethyl)amino]-7-(trifluoromethyl) pyrido[2,3-d]pyrimidin-2(1H)-one] | > 6.70
O=c1nc(NC23CC(O)(C2)C3)c2ccc(C(F)(F)F)nc2n1-c1ccccc1Cl [Example 297, 1-(2-chlorophenyl)-4-[(3-hydroxy-bicyclo[1.1.1]pentyl)amino]-7-(trifluoro-methyl)-pyrido[2,3-d]pyrimidin-2(1H)-one] | > 6.70
O=c1nc(N[C@H]2C[C@@](O)(C(F)(F)F)C2)c2ccc(C(F)(F)F)nc2n1-c1ccccc1Cl [Example 299] | 6.30 to 6.70
C[C@]1(O)C[C@H](Nc2nc(=O)n(-c3ccccc3Cl)c3nc(C(F)(F)F)ccc23)C1 [Example 300, 4-[((trans)-3-hydroxy-3-methylcyclo-butyl)amino]-1-(2-chlorophenyl)-7-(trifluoromethyl)pyrido[2,3-d]pyrimidin-2(1H)-one] | > 6.70
CO[C@H]1C[C@H](Nc2nc(=O)n(-c3ccccc3Cl)c3nc(C(F)(F)F)ccc23)C1 [Example 301] | > 6.70
CNc1nc(=O)n(-c2ccccc2Cl)c2cc(C(F)(F)F)c(Br)cc12 [Example 302, 6-bromo-1-(2-chlorophenyl)-4-(methylamino)-7-(trifluoromethyl)-quinazolin-2(1H)-one] | > 6.70
CNc1nc(=O)n(-c2ccccc2)c2cc(C(F)(F)F)c(Br)cc12 [Example 303, 6-bromo-4-(methylamino)-1-phenyl-7-(trifluoromethyl)quinazolin-2(1H)-one] | > 6.70
CNc1nc(=O)n(-c2ccccc2Cl)c2cc(C(F)(F)F)c(F)cc12 [Example 304, 1-(2-chlorophenyl)-6-fluoro-4-(methyl-amino)-7-(trifluoromethyl)hydro-quinazolin-2-one] | > 6.70
CN(C)c1nc(=O)n(-c2ccc3[nH]cnc3c2)c2cc(Cl)ccc12 [Example 306, 1-benzimidazol-5-yl-4-(dimethylamino)-7-chlorohydroquinazolin-2-one] | > 6.70
CNc1nc(=O)n(-c2ccc3[nH]cnc3c2)c2cc(Cl)ccc12 [Example 307, 1-benzimidazol-5-yl-7-chloro-4-(methyl-amino)hydroquinazolin-2-one] | > 6.70
O=c1nc(NC2CC2)c2ccc(C(F)(F)F)nc2n1-c1ccccc1Cl [Example 308, 1-(2-chlorophenyl)-4-(cyclopropyl-amino)-7-(trifluoromethyl)pyrido[2,3-d]pyrimidin-2(1H)-one] | > 6.70
CNc1nc(=O)n(-c2ncccn2)c2cc(C3CC3)ccc12 [Example 309, 7-cyclopropyl-4-(methylamino)-1-pyrimidin-2-ylhydroquinazolin-2-one] | 5.00 to 6.00
CNc1nc(=O)n(-c2ccc(F)c(O)c2)c2cc(Cl)ccc12 [Example 310, 7-chloro-1-(4-fluoro-3-hydroxyphenyl)-4-(methylamino)hydroquinazolin-2-one] | > 6.70
CNc1nc(=O)n(-c2ccncc2Cl)c2nc(C(F)(F)F)ccc12 [Example 312] | > 6.70
CNc1nc(=O)n(-c2ccncc2)c2nc(C(F)(F)F)ccc12 [Example 313] | 6.00 to 6.30
CNc1nc(=O)n(-c2ccc(C)nc2)c2nc(C(F)(F)F)ccc12 [Example 314] | > 6.70
O=c1nc(N2CC(F)C2)c2ccc(C(F)(F)F)nc2n1-c1ccccc1Cl [Example 315, 1-(2-chlorophenyl)-4-(3-fluoroazetidin-1-yl)-7-(trifluoromethyl)pyrido[2,3-d]pyrimidin-2(1H)-one] | > 6.70
O=c1nc(NC2CC3(C2)CS(=O)(=O)C3)c2ccc(C(F)(F)F)nc2n1-c1ccccc1Cl [Example 316, 1-(2-chlorophenyl)-4-((2,2-dioxido-2-thiaspiro[3.3]heptan-6-yl)amino)-7-(trifluoromethyl)pyrido[2,3-d]pyrimidin-2(1H)-one] | 6.30 to 6.70
COCCNc1nc(=O)n(-c2ccccc2Cl)c2nc(C(F)(F)F)ccc12 [Example 317, 1-(2-chlorophenyl)-4-[(2-methoxyethyl)-amino]-7-(trifluoromethyl)pyrido[2,3-d]-pyrimidin-2(1H)-one] | > 6.70
N#C[C@H]1C[C@@H](Nc2nc(=O)n(-c3ccccc3Cl)c3nc(C(F)(F)F)ccc23)C1 [Example 318, (1s,3s)-3-((1-(2-chlorophenyl)-2-oxo-7-(trifluoromethyl)-1,2-dihydropyrido[2,3-d]pyrimidin-4-yl)amino)cyclobutane-1-carbonitrile] | > 6.70
CC1(Nc2nc(=O)n(-c3ccccc3Cl)c3nc(C(F)(F)F)ccc23)CCC1 [Example 319] | > 6.70

Same assay, conditions: L-methionine 500 uM, ATP 500 uM, numeric bound

pIC50 | SMILES
< 5.00 | CNc1nc(=O)n(-c2ccccc2Cl)c2c(Cl)c(C(F)(F)F)ccc12 [Example 342, 8-chloro-1-(2-chlorophenyl)-4-(methylamino)-7-(trifluoromethyl)-hydroquinazolin-2-one]
< 5.00 | CNc1nc(=O)n(-c2ccccc2)c2c(Cl)c(C(F)(F)F)ccc12 [Example 343, 8-chloro-4-(methylamino)-1-phenyl-7-(trifluoromethyl)hydroquinazolin-2-one]

Continued, compound first:

SMILES | pIC50
O=c1[nH]c(=O)n(-c2cccc3nc[nH]c23)c2cc(Cl)ccc12 [Example 305, 1-benzimidazol-7-yl-7-chloro-1,3-dihydroquinazoline-2,4-dione] | < 5.00
COc1ccc(F)c(-n2c(=O)[nH]c(=O)c3ccc(Cl)cc32)c1 [Example 311, 7-chloro-1-(2-fluoro-5-methoxyphenyl)-quinazoline-2,4(1H,3H)-dione] | < 5.00
